Reference: US20260008793A1, “IONIZABLE CATIONIC LIPIDS INCORPORATING SILICON” (ALDEXCHEM KFT., priority 2022, published 2026)

What was measured:
[1] = LNP size, PDI and zeta potential by Dynamic Light Scattering (Method A); format: physicochemical; details: LNP formulated by Method A; for Zeta potential (mV): 1xPBS pH 7.4; for PDI / Size (nm): DLS; for Size (nm): Luciferase-mRNA loaded
In short: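 LNPs formulated by microfluidic mixing of mRNA in 10 mM citrate pH 4.0 with ethanolic lipid mix (ionizable lipid added to master mix) at 3:1 aqueous:lipid ratio, then dialysed (100 kDa MWCO). Size, PDI and zeta potential measured by dynamic light scattering.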

HeLa cells = assay: Transfection efficiency with Luciferase-mRNA, Nano-Glo assay (Method A); format: cell-based; details: 100 ng Luciferase (SecNLuc) mRNA, 24 h, luminescence
In short: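 LNPs carrying secreted NanoLuc mRNA (100, 50 or 10 ng/well, in Opti-MEM) added to HeLa cells at ~80% confluence and incubated 24 h. Medium luciferase activity measured by Nano-Glo luminescence about 3 min after reagent addition; toxicity tested in parallel by resazurin.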

## CCCCCCCCOC(CCCCCN(CCO)CCCCCCCC(=O)OC(CCCCCCCC)CCCCCCCC)O[Si](C)(C)O[Si](C)(C)CCCCCCCC (centres unmarked) [Example 191, heptadecan-9-yl 8-((2-hydroxyethyl)(6-(octyloxy)-6-((1,1,3,3-tetramethyl-3-octyldisiloxaneyl)oxy)hexyl)amino)octanoate]
[1]
  Zeta potential (mV): −10.35 mV
  PDI: 0.05
  Size (nm): 159.4 nm
HeLa cells
  Transfection* (Method A = 100 ng mRNA): 34867

## CCCCCCCCOC(CCCCCN(CCO)CCCCCCCC(=O)OC(CCCCCCCC)CCCCCCCC)O[Si](C)(C)O[Si](C)(C)OCCCCCCCC (centres unmarked) [Example 192, heptadecan-9-yl 8-((2-hydroxyethyl)(6-(octyloxy)-6-((1,1,3,3-tetramethyl-3-(octyloxy)disiloxaneyl)oxy)hexyl)amino)octanoate]
[1]
  Zeta potential (mV): −12.28 mV
  PDI: 0.042
  Size (nm): 175.0 nm
HeLa cells
  Transfection* (Method A = 100 ng mRNA): 11507

## CC/C=C\C/C=C\C/C=C\C/C=C\C/C=C\CCCCN(CCCCO)CCCCCC(OCCCCCCCC)O[Si](C)(C)CCCCCCCC (centres unmarked) [Example 194, 4-((6-((dimethyl(octyl)silyl)oxy)-6-(octyloxy)hexyl)((5Z,8Z,11Z,14Z,17Z)-icosa-5,8,11,14,17-pentaen-1-yl)amino)butan-1-ol]
[1]
  Zeta potential (mV): −16.45 mV
  PDI: 0.085
  Size (nm): 153.5 nm
HeLa cells
  Transfection* (Method A = 100 ng mRNA): 152542

## CC/C=C\C/C=C\C/C=C\C/C=C\C/C=C\CCCCN(CCCCO)CCCCCCOC(CCCCCCC)O[Si](C)(C)CCCCCCCC (centres unmarked) [Example 195, 13-heptyl-5-((5Z,8Z,11Z,14Z,17Z)-icosa-5,8,11,14,17-pentaen-1-yl)-15,15-dimethyl-12,14-dioxa-5-aza-15-silatricosan-1-ol]
[1]
  Zeta potential (mV): −5.8 mV
  PDI: 0.04
  Size (nm): 155.2 nm
HeLa cells
  Transfection* (Method A = 100 ng mRNA): 180769

## CC/C=C\C/C=C\C/C=C\C/C=C\C/C=C\CCCCN(CCCCO)CCCCCCOC(CCCCCCC)O[Si](C)(C)OCCCCCCCC (centres unmarked) [Example 197, 13-heptyl-5-((5Z,8Z,11Z,14Z,17Z)-icosa-5,8,11,14,17-pentaen-1-yl)-15,15-dimethyl-12,14,16-trioxa-5-aza-15-silatetracosan-1-ol]
[1]
  Zeta potential (mV): −12.3 mV
  PDI: 0.135
  Size (nm): 170 nm
HeLa cells
  Transfection* (Method A = 100 ng mRNA): 497865

## CC/C=C\C/C=C\C/C=C\C/C=C\C/C=C\CCCCN(CCCCO)CCCCCC(OCCCCCCCC)O[Si](C)(C)O[Si](C)(C)CCCCCCCC (centres unmarked) [Example 198, 4-(((5Z,8Z,11Z,14Z,17Z)-icosa-5,8,11,14,17-pentaen-1-yl)(6-(octyloxy)-6-((1,1,3,3-tetramethyl-3-octyldisiloxaneyl)oxy)hexyl)amino)butan-1-ol]
[1]
  Zeta potential (mV): −13.07 mV
  PDI: 0.004
  Size (nm): 158 nm
HeLa cells
  Transfection* (Method A = 100 ng mRNA): 53096

## CC/C=C\C/C=C\C/C=C\C/C=C\C/C=C\CCCCN(CCCCO)CCCCCCOC(CCCCCCC)O[Si](C)(C)O[Si](C)(C)CCCCCCCC (centres unmarked) [Example 199, 13-heptyl-5-((5Z,8Z,11Z,14Z,17Z)-icosa-5,8,11,14,17-pentaen-1-yl)-15,15,17,17-tetramethyl-12,14,16-trioxa-5-aza-15,17-disilapentacosan-1-ol]
[1]
  Zeta potential (mV): −12.42 mV
  PDI: 0.08
  Size (nm): 164.3 nm
HeLa cells
  Transfection* (Method A = 100 ng mRNA): 144984

## CC/C=C\C/C=C\C/C=C\C/C=C\C/C=C\CCCCN(CCCCO)CCCCCC(OCCCCCCCC)O[Si](C)(C)O[Si](C)(C)OCCCCCCCC (centres unmarked) [Example 200, 4-(((5Z,8Z,11Z,14Z,17Z)-icosa-5,8,11,14,17-pentaen-1-yl)(6-(octyloxy)-6-((1,1,3,3-tetramethyl-3-(octyloxy)disiloxaneyl)oxy)hexyl)amino)butan-1-ol]
[1]
  Zeta potential (mV): −13.03 mV
  PDI: 0.089
  Size (nm): 155.1 nm
HeLa cells
  Transfection* (Method A = 100 ng mRNA): 225921

## CC/C=C\C/C=C\C/C=C\C/C=C\C/C=C\CCCCN(CCCCO)CCCCCCOC(CCCCCCC)O[Si](C)(C)O[Si](C)(C)OCCCCCCCC (centres unmarked) [Example 201, 13-heptyl-5-((5Z,8Z,11Z,14Z,17Z)-icosa-5,8,11,14,17-pentaen-1-yl)-15,15,17,17-tetramethyl-12,14,16,18-tetraoxa-5-aza-15,17-disilahexacosan-1-ol]
[1]
  Zeta potential (mV): −13.1 mV
  PDI: 0.055
  Size (nm): 176.2 nm
HeLa cells
  Transfection* (Method A = 100 ng mRNA): 25071

## CC/C=C\C/C=C\C/C=C\C/C=C\C/C=C\CCCCN(CCCCO)CCCCCC(OCCCCCCCC)O[Si](C)(C)OCC(CCCCCC)CCCCCCCC (centres unmarked) [Example 202, 16-hexyl-5-((5Z,8Z,11Z,14Z,17Z)-icosa-5,8,11,14,17-pentaen-1-yl)-13,13-dimethyl-11-(octyloxy)-12,14-dioxa-5-aza-13-silatetracosan-1-ol]
[1]
  Zeta potential (mV): −10.0 mV
  PDI: 0.072
  Size (nm): 154.8 nm
HeLa cells
  Transfection* (Method A = 100 ng mRNA): 37442

## CC/C=C\C/C=C\C/C=C\C/C=C\C/C=C\CCCCN(CCCCO)CCCCCCOC(CCCCCCC)O[Si](C)(C)OCC(CCCCCC)CCCCCCCC (centres unmarked) [Example 203, 13-heptyl-18-hexyl-5-((5Z,8Z,11Z,14Z,17Z)-icosa-5,8,11,14,17-pentaen-1-yl)-15,15-dimethyl-12,14,16-trioxa-5-aza-15-silahexacosan-1-ol]
[1]
  Zeta potential (mV): −14.95 mV
  PDI: 0.13
  Size (nm): 139.2 nm
HeLa cells
  Transfection* (Method A = 100 ng mRNA): 161894

## CC/C=C\C/C=C\C/C=C\C/C=C\C/C=C\CCCCN(CCCCO)CCCCCC[Si](C)(C)OC(CCCCCCC)OCCCCCCCC (centres unmarked) [Example 204, 14-heptyl-5-((5Z,8Z,11Z,14Z,17Z)-icosa-5,8,11,14,17-pentaen-1-yl)-12,12-dimethyl-13,15-dioxa-5-aza-12-silatricosan-1-ol]
[1]
  Zeta potential (mV): −10.63 mV
  PDI: 0.056
  Size (nm): 140 nm
HeLa cells
  Transfection* (Method A = 100 ng mRNA): 282773

## CC/C=C\C/C=C\C/C=C\C/C=C\C/C=C\CCCCN(CCCCO)CCCCCCO[Si](C)(C)OC(CCCCCCC)OCCCCCCCC (centres unmarked) [Example 205, 15-heptyl-5-((5Z,8Z,11Z,14Z,17Z)-icosa-5,8,11,14,17-pentaen-1-yl)-13,13-dimethyl-12,14,16-trioxa-5-aza-13-silatetracosan-1-ol]
[1]
  Zeta potential (mV): −13.13 mV
  PDI: 0.077
  Size (nm): 197.2 nm
HeLa cells
  Transfection* (Method A = 100 ng mRNA): 95124

## CCCCCCCCOC(CCCCCN(CCCCO)CCC[C@@H](C)C1CCC2C3CCC4C[C@H](OC)CC[C@]4(C)C3CC[C@@]21C)O[Si](C)(C)CCCCCCCC (stereo partly drawn) [Example 214, 4-((6-((dimethyl(octyl)silyl)oxy)-6-(octyloxy)hexyl)((4R)-4-((3R,10S,13R)-3-methoxy-10,13-dimethylhexadecahydro-1H-cyclopenta[a]phenanthren-17-yl)pentyl)amino)butan-1-ol]
[1]
  Zeta potential (mV): −13.59 mV
  PDI: 0.14
  Size (nm): 191.2 nm
HeLa cells
  Transfection* (Method A = 100 ng mRNA): 318542
